Reference: US20080070875A1, “Acne treatment compositions and methods of use” (priority 2006, published 2008)
Where two headings read alike, the source gives them in different places.

System: P. acnes (MicroBiologics, ATCC #11827)
Test: Minimal inhibitory concentration (MIC) against P. acnes, serial dilution in thioglycollate broth
Format: cell-based, Propionbacterium acnes
Conditions: for MIC: Cutibacterium acnes
Description: The objective of this example was to establish the minimal inhibitory concentration (MIC) of quercetin (Q), rosmarinic acid (RA), triclosan (T) and salicylic acid (SA) towards the bacterium P. acnes. Combinations of quercetin with rosmarinic acid 1:1 (Q+RA) and quercetin with salicylic acid (1:1) (Q+SA) were also tested.
The following methods were used in this example. P. acnes (MicroBiologics, ATCC #11827, batch #419697) was inoculated at 3 different dilutions and grown on blood agar plates for 3 days in anaerobic condition at 37 C. About 10 colonies were than suspended in thioglycollate broth in order to achieve the density equivalent to 0.5 McFarland standard. Test materials were dissolved in the thioglycollate broth at following concentrations:
The antimicrobial effect of the test samples was assayed by making serial dilutions for each material or the 1:1 combination thereof, followed by anaerobic incubation with bacterial agent in thioglycollate brothin a 96 well plate, at the initial density of 5×10^5 CFU/ml (0.001 McFarland standard). MIC was determined visually after 84 hours and confirmed by spectrophotometry at 405 nm with the BioRad 3550-UV microplate reader, using media with respective test materials without bacteria for background subtraction.

[1] = ATCC11827, anaerobic incubation in thioglycollate broth, 84 hours, visual, confirmed at 405 nm, read-out: MIC
[2] = anaerobic incubation in thioglycollate broth, 84 hours

SMILES	MIC [1]	MIC (%) [2]	activity towards inhibiting P. acnes in the presence of salicylic acid (in the presence of salicylic acid (1:1), result in words)	activity towards inhibiting P. acnes (result in words)	MIC (ATCC11827, 84 h)
O=C(O)c1ccccc1O [SA, 2-Hydroxybenzoic acid, reference compound]	> 2000 µg/mL	2%	–	–	–
O=c1c(O)c(-c2ccc(O)c(O)c2)oc2cc(O)cc(O)c12 [Q, 2-(3,4-dihydroxyphenyl)-3,5,7-trihydroxy-4H-1-benzopyran-4-one]	30 µg/mL	0.003%	maintained activity	significant activity	–
O=C(/C=C/c1ccc(O)c(O)c1)O[C@H](Cc1ccc(O)c(O)c1)C(=O)O [RA]	30 µg/mL	0.003%	–	significant activity	–
Oc1cc(Cl)ccc1Oc1ccc(Cl)cc1Cl [T, triclosan, reference compound]	–	0.4%	–	–	400 µg/mL
